Source: ChEMBL document CHEMBL1154641 (Bioorg Med Chem Lett, 2009)

biological target: T1, Carbonic anhydrase 2 (Mycobacterium tuberculosis, UniProt P9WPJ9)
T1 sequence (P9WPJ9 whole entry): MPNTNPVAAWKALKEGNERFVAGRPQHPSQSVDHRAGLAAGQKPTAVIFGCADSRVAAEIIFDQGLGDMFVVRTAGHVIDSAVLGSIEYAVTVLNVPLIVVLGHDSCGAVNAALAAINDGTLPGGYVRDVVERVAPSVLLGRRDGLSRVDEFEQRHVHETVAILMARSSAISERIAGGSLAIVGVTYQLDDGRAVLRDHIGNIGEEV
Description: Inhibition of full length Mycobacterium tuberculosis H37Rv recombinant carbonic anhydrase 2 encoded by RV3588c by stopped flow CO2 hydration assay

Row | Structure (SMILES) | Ki
1 | NS(=O)(=O)c1nnc(-c2ccccc2Cl)s1 | 45.2 µM
2 | Cc1ccc(S(N)(=O)=O)cc1 [P-TOLUENESULFONAMIDE] | 38.9 µM
3 | Nc1ccc(S(N)(=O)=O)cc1I | 32.4 µM
4 | NS(=O)(=O)c1ccc(S(=O)(=O)Nc2cccc3c(Cl)c[nH]c23)cc1 | 0.717 µM
5 | NS(=O)(=O)c1ccc(CO)cc1 | 38.3 µM
6 | NCc1ccc(S(N)(=O)=O)cc1 [MAFENIDE] | 30.7 µM
7 | NCCc1ccc(S(N)(=O)=O)cc1 | 29.1 µM
8 | Nc1ccc(S(=O)(=O)NCCc2ccc(S(N)(=O)=O)cc2)cc1 | 2.29 µM
9 | Nc1ccc(S(N)(=O)=O)cc1Br | 31.6 µM
